PubChem BioAssay AID1963838 (Molecular Pharmacology Branch, DTP, NCI, 2024)
Several values for one entry are separate records, joined by “and”; a condition that tells them apart may be missing. Equal entries are not always repeated.

Tested on: 855422-203-R-J1-PDC complex spheroid viability
Assay: Anticancer human tumor 855422-203-R-J1-PDC patient-derived bladder carcinoma cell line growth inhibition [POLQ]
Conditions: for viability, T/C: stronger effect = lower value
Protocol: Multicellular complex tumor spheroid response to Polymerase (POL) inhibitors (novobiocin, ART-558, RP6685) in combination with a variety of drugs and investigational agents in selected tumor cell lines
The POL inhibitors (novobiocin, ART-558, and RP6685) were evaluated both individually and in combination with standard of care and investigational anticancer small molecules within a complex spheroid model of solid tumors. . Complex spheroids include a stromal component modeled by human endothelial cells (HUVEC) and fibroblasts modeled by human mesenchymal stem cells (MSCs). The concentration ranges selected for each drug and investigational agent were based upon clinically achievable concentrations if the clinical Cmax of the agent was known.
Compounds. The drugs and investigational agents: novobiocin (NSC847541), ART-558 (NSC835418), RP-6685 (NSC848927), peposertib (NSC802822), ceralasertib (NSC780249), elimusertib (NSC800525), camonsertib (NSC841442), AZD-1390 (NSC803789), olaparib (NSC753686), talazoparib (NSC767125), rucaparib (NSC756644), sotorasib (NSC818433), MRTX-1133 (NSC836407), SN-38 (NSC673596), topotecan (NSC609699), epotoside (NSC141540), doxorubicin (NSC123127), gemcitabine (NSC613327), 5-fluorouracil (NSC19893), paclitaxel (NSC125973), vemurafenib (NSC761431), MSA-2 (NSC828583), SN-011 (NSC837082), adavosertib (NSC754352), prexasertib (NSC758257), carboplatin (NSC241240) and oxaliplatin (NSC266046), were obtained from the National Cancer Institute (NCI) Developmental Therapeutics Program Chemical Repository (21). The FDA-approved anticancer drug set is available from the Developmental Therapeutics Program at https://dtp.cancer.gov/organization/dscb/obtaining/. […] The stock solutions were prepared in dimethyl sulfoxide (DMSO, Sigma-Aldrich, St. Louis, MO, cat. D2650), except for the platinum compounds which were prepared in saline (Quality Biological, Gaithersburg, MD, cat. 114-055-101), at 800-fold the tested concentration and stored at -70 degrees C prior to their use. All drugs and investigational agents were tested over a range starting from a high concentration at or near the clinical Cmax and decreasing in half-log increments. If the clinical Cmax for an agent had not been determined, the highest concentration tested was 10 microM, except for SN-38, which was tested at a high concentration of 1 microM.
Cell Culture. All cells were maintained in an incubator at 37 degrees C and 5% CO2 with 95% humidity. The PDC lines were cultured according to standard operating procedures established by the NCI PDMR (https://pdmr.cancer.gov). Table 3 of the manuscript, lists the cell lines along with the number of the three cell types plated to form the mct-spheroids and media for tumor cell growth. After thawing, all PDC lines, except 997537-175-T-J1-PDC and 415267-285-R-J2-PDC, were cultured in Matrigel-coated flasks prepared with a working solution of 1X Ham's F-12 nutrient mix, without supplementation (Thermo Fisher Scientific, cat. 11765054), 100 U/mL penicillin-streptomycin (Thermo Fisher Scientific, cat. 15140122), and 2.5% Matrigel (Corning Inc., Corning, NY, cat. 354248) for the first three passages. The two PDC lines 997537-175-T-J1-PDC and 415267-285-R-J2-PDC were cultured on uncoated flasks. The 857933-349-R-J2-PDC line was cultured in 6C/Colon 1B media containing advanced DMEM/F-12 (Thermo Fisher Scientific, cat. 12634028), 10 mM HEPES (Thermo Fisher Scientific, cat. 15630080), 1X GlutaMAX supplement (Thermo Fisher Scientific, cat. 35050061), 0.1 mg/mL primocin (InvivoGen, San Diego, CA, cat. ant-pm-2), 10% defined fetal bovine serum, heat inactivated (HyClone Laboratories Inc., Logan, UT, cat. SH30070.03HI), 50% L-WRN conditioned media (ATCC, cat. CRL-3276), 1.25 mM N-Acetyl-L-cysteine (Sigma-Aldrich, cat. A9165), 10 mM nicotinamide (Sigma-Aldrich, cat. N0636), 1X B-27 supplement (Thermo Fisher Scientific, cat. 17504044), 1X N-2 supplement (Thermo Fisher Scientific, cat. […]

[1] = curve of first compound, second compound 0.0316 µM
[2] = curve of first compound, second compound 0.1 µM
[3] = curve of first compound, second compound 0.316 µM
[4] = curve of first compound, second compound 1 µM
[5] = curve of first compound, second compound 3.16 µM
[6] = curve of first compound, second compound 10 µM
[7] = second compound 0.0316 µM, first compound 0.0316 µM
[8] = second compound 0.0316 µM, first compound 0.1 µM
[9] = second compound 0.0316 µM, first compound 0.316 µM
[10] = second compound 0.0316 µM, first compound 1 µM
[11] = second compound 0.0316 µM, first compound 3.16 µM
[12] = second compound 0.0316 µM, first compound 10 µM
[13] = second compound 0.1 µM, first compound 0.0316 µM
[14] = second compound 0.1 µM, first compound 0.1 µM
[15] = second compound 0.1 µM, first compound 0.316 µM
[16] = second compound 0.1 µM, first compound 1 µM
[17] = second compound 0.1 µM, first compound 3.16 µM
[18] = second compound 0.1 µM, first compound 10 µM
[19] = second compound 0.316 µM, first compound 0.0316 µM
[20] = second compound 0.316 µM, first compound 0.1 µM
[21] = second compound 0.316 µM, first compound 0.316 µM
[22] = second compound 0.316 µM, first compound 1 µM
[23] = second compound 0.316 µM, first compound 3.16 µM
[24] = second compound 0.316 µM, first compound 10 µM
[25] = second compound 1 µM, first compound 0.0316 µM
[26] = second compound 1 µM, first compound 0.1 µM
[27] = second compound 1 µM, first compound 0.316 µM
[28] = second compound 1 µM, first compound 1 µM
[29] = second compound 1 µM, first compound 3.16 µM
[30] = second compound 1 µM, first compound 10 µM
[31] = second compound 3.16 µM, first compound 0.0316 µM
[32] = second compound 3.16 µM, first compound 0.1 µM
[33] = second compound 3.16 µM, first compound 0.316 µM
[34] = second compound 3.16 µM, first compound 1 µM
[35] = second compound 3.16 µM, first compound 3.16 µM
[36] = second compound 3.16 µM, first compound 10 µM
[37] = second compound 10 µM, first compound 0.0316 µM
[38] = second compound 10 µM, first compound 0.1 µM
[39] = second compound 10 µM, first compound 0.316 µM
[40] = second compound 10 µM, first compound 1 µM
[41] = second compound 10 µM, first compound 3.16 µM
[42] = second compound 10 µM, first compound 10 µM
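Note: spheroids exposed to compounds for seven days before readout.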

## COc1cc(C2c3cc4c(cc3C(OC3OC5COC(C)OC5C(O)C3O)C3COC(=O)C23)OCO4)cc(OC)c1O (stereo not drawn) + Cc1cccc(N(C)C(=O)C2C(O)CCN2c2nc(C)cc(C(F)(F)F)c2C#N)c1
[1]
  IC50: 0.229 µM
[2]
  IC50: 0.222 µM
[3]
  IC50: 0.205 µM
[4]
  IC50: 0.189 µM
[5]
  IC50: 0.18 µM
[6]
  IC50: 0.137 µM
[7]
  viability, T/C: 102%
[8]
  viability, T/C: 102%
[9]
  viability, T/C: 30.1%
[10]
  viability, T/C: 11.4%
[11]
  viability, T/C: 7.61%
[12]
  viability, T/C: 4.64%
[13]
  viability, T/C: 98.4%
[14]
  viability, T/C: 98.4%
[15]
  viability, T/C: 28.7%
[16]
  viability, T/C: 12.5%
[17]
  viability, T/C: 6.62%
[18]
  viability, T/C: 4.51%
[19]
  viability, T/C: 111%
[20]
  viability, T/C: 89.8%
[21]
  viability, T/C: 25.9%
[22]
  viability, T/C: 11.4%
[23]
  viability, T/C: 8.46%
[24]
  viability, T/C: 4.61%
[25]
  viability, T/C: 113%
[26]
  viability, T/C: 80.2%
[27]
  viability, T/C: 24.8%
[28]
  viability, T/C: 11.8%
[29]
  viability, T/C: 6.9%
[30]
  viability, T/C: 5.16%
[31]
  viability, T/C: 97.7%
[32]
  viability, T/C: 77%
[33]
  viability, T/C: 23.5%
[34]
  viability, T/C: 12.4%
[35]
  viability, T/C: 6.67%
[36]
  viability, T/C: 4.34%
[37]
  viability, T/C: 97%
[38]
  viability, T/C: 60.9%
[39]
  viability, T/C: 20.7%
[40]
  viability, T/C: 13.5%
[41]
  viability, T/C: 6.34%
[42]
  viability, T/C: 4.46%

## COc1cc2cc(C(=O)CCC(=O)O)sc2cc1OC + Cc1cccc(N(C)C(=O)C2C(O)CCN2c2nc(C)cc(C(F)(F)F)c2C#N)c1
[1]
  IC50: > 10 µM
[2]
  IC50: > 10 µM
[3]
  IC50: > 10 µM
[4]
  IC50: > 10 µM
[5]
  IC50: > 10 µM
[6]
  IC50: > 10 µM
[7]
  viability, T/C: 111%
[8]
  viability, T/C: 118%
[9]
  viability, T/C: 106%
[10]
  viability, T/C: 94%
[11]
  viability, T/C: 108%
[12]
  viability, T/C: 113%
[13]
  viability, T/C: 108%
[14]
  viability, T/C: 118%
[15]
  viability, T/C: 100%
[16]
  viability, T/C: 108%
[17]
  viability, T/C: 122%
[18]
  viability, T/C: 125%
[19]
  viability, T/C: 96.6%
[20]
  viability, T/C: 149%
[21]
  viability, T/C: 103%
[22]
  viability, T/C: 95.5%
[23]
  viability, T/C: 116%
[24]
  viability, T/C: 102%
[25]
  viability, T/C: 85.4%
[26]
  viability, T/C: 131%
[27]
  viability, T/C: 102%
[28]
  viability, T/C: 129%
[29]
  viability, T/C: 112%
[30]
  viability, T/C: 89.2%
[31]
  viability, T/C: 118%
[32]
  viability, T/C: 122%
[33]
  viability, T/C: 102%
[34]
  viability, T/C: 126%
[35]
  viability, T/C: 129%
[36]
  viability, T/C: 120%
[37]
  viability, T/C: 108%
[38]
  viability, T/C: 127%
[39]
  viability, T/C: 121%
[40]
  viability, T/C: 114%
[41]
  viability, T/C: 114%
[42]
  viability, T/C: 114%

## CCCS(=O)(=O)Nc1ccc(F)c(C(=O)c2c[nH]c3ncc(-c4ccc(Cl)cc4)cc23)c1F
Compound 0.0316 µM
  viability, T/C: 106% and 96.3% and 94.9%
Compound 0.1 µM
  viability, T/C: 97.9% and 102% and 107%
Compound 0.316 µM
  viability, T/C: 117% and 97.8% and 105%
Compound 1 µM
  viability, T/C: 96.7% and 100% and 109%
Compound 3.16 µM
  viability, T/C: 113% (2×) and 108%
Compound 10 µM
  viability, T/C: 7.16% and 6.83% and 1.07%
Curve of compound
  IC50: 6.08 µM and 5.93 µM and 5.81 µM

## Nc1ccn(C2OC(CO)C(O)C2(F)F)c(=O)n1 (stereo not drawn)
Compound 0.0316 µM
  viability, T/C: 81.1% and 75.1% and 69.6%
Compound 0.1 µM
  viability, T/C: 41.7% and 19.3% and 37.9%
Compound 0.316 µM
  viability, T/C: 17.7% and 14.3% and 12.9%
Compound 1 µM
  viability, T/C: 13.3% and 13.5% and 11.3%
Compound 3.16 µM
  viability, T/C: 7.69% and 9.12% and 7.82%
Compound 10 µM
  viability, T/C: 6.31% and 7.6% and 6.51%
Curve of compound
  IC50: 0.0777 µM and 0.0531 µM and 0.0642 µM
